Tests used:
bacteria tested = experiment: bactericidal activity of TauBr compared with TauCl at pH above 7; assay type: cell-based
Propionibacterium acnes = experiment: microbicidal activity of TauBr solution, incubation with bacteria then colony count; assay type: cell-based; settings: Cutibacterium acnes, 0.5 h, 30 minutes incubation at room temperature, range tested 1-1000 μM, read-out: inhibitory concentration (MIC)
Experimental: (§1) For research purposes, two bacterial strains commonly found on the human skin were chosen: Propionibacterium acnes (causing acne) and Staphylococcus epidermides (being a part of physiological flora of the skin). Selected microorganisms were lyophilized and kept at room temperature. To prepare strain cultures for immune research the lyophilisate was dissolved in 0.5 ml of 0.9% NaCl solution. The mixture was stirred and seeded on a growth medium. Incubation was conducted in anaerobic conditions at 37° C. for 48-72 hrs. A suspension of bacteria at a concentration of 5×10^9 CFU/ml was then prepared.
(§2) In order to assess the microbicidal activity of the TauBr solution, the Proponibacterium acnes and the Staphylococcus epidermides bacteria were incubated in closed tubes with TauBr solution. The range of concentrations tested was 1-1000 μM. The incubation was conducted at room temperature for 30 minutes. When this process was completed, bacteria were seeded onto a growth medium. After an appropriate period of time the number of developed colonies were counted. Next, estimation of the susceptibility of the Proponibacterium acnes and Staphylococcus epidermides bacteria to the agent tested [TauBr] was determined.

[1] = system: Staphylococcus epidermidis; experiment: as above; assay type: cell-based; settings: 0.5 h, 30 minutes incubation at room temperature, range tested 1-1000 μM, read-out: inhibitory concentration (MIC)
Experimental: as §1, §2

bacteria on the skin [2] = experiment: imprinting method on skin of volunteers, gel, cream and powder preparations; assay type: in vivo, human; settings: above 5 mM taurine bromamine; for example Staphylococcus epidermides
Experimental: Further studies of the antibacterial activity of taurine bromamine were conducted using a gel, a cream and a powder. In these tests, applications with a semisolid consistency and plastic features were made, called hereinafter, pharmaceutical or cosmetic preparations or compositions, particularly a taurine bromamine solution in an ethyl-cellulose gel with pH 5-pH 7, a cetomacrogol cream with pH 5-pH 7 and a powder suspension in a taurine bromamine solution.
The powder suspension in taurine bromamine solution was prepared on a base of liquid powder changing the proportions of the components by weight. The suspension consisted of, by weight: 14.0-60.0% of 10 mM Taurine bromamine solution, 10.0-24.0% of talc, 14.0-40.0% of glycerol, 5.0-30.0% of distilled water and 0.5-2.0% of menthol. The constituents of the suspension were stirred thoroughly until an homogenous dispersion of the solid phase was obtained. […]
The preparations were left on the skin area for 30 minutes and then the plates were pressed down so that the site exposed to the activity of the various substances was imprinted centrally on the plate. […] Wherever it was possible, all cultivated colonies of relatively aerobic bacteria and anaerobic bacteria were counted, giving their occurrence per 1 cm^2 of the skin. […]

bacteria on the skin [3] = experiment: imprinting method with Rodac plates on dorsal skin of volunteers, solutions on gauze pads; assay type: in vivo, human; settings: 30 minutes
Text: In order to conduct further tests to ascertain the antibacterial activity of the formulation containing taurine bromamine and prepared by the method described above, the imprinting method was chosen with use of Rodac plates with an area of 25 cm^2. For the purposes of study a Scheadler Agar Base medium produced by the firm Dico, catalogue number 212189, was used with addition of 5% ram blood. The medium was poured steadily onto the Rodac plates in aseptic conditions until a convex meniscus appeared. Before being applied, the medium was kept in enclosed conditions within a fridge at a temperature of ca. +4° C. and was used in a time not exceeding 7 days from the date of its preparation.
Tests for the antibacterial activity of taurine bromamine were conducted by performing 5 imprints of the dorsal skin on time at each of the patients examined. The skin area, on which the tests were to be performed, was determined in advance and marked with the numbers 1-5. […]
At the site marked 1—a gauze pad saturated with 0.9% inj. solution of NaCl (Polfa Lublin), which was a control substance without antibacterial activity was applied to the skin. […] Wherever possible, all the cultivated colonies of relatively aerobic and anaerobic bacteria were counted, to provide a figure for the concentration per cm^2 of the skin. […]

Row | Structure (SMILES) | selective bactericidal properties (variable susceptibility of strains) (bacteria tested) | bactericidal properties (bacteria tested; pH above 7, subcytotoxic concentrations for mammalian cells) | bactericidal activity relative to TauCl (bacteria tested; especially at pH above 7) | bacteria destroyed (bacteria tested; pH above 7) | MIC (Propionibacterium acnes) | MIC [1] | effect on bacterial flora of normal skin (bacteria on the skin [2]) | bacterial concentration on skin after treatment (bacteria on the skin [3]; 5 mM solution in buffer pH 7, decrease from uncountable level of ca 10^4 CFU/cm^2) | number of bacteria on the skin area (bacteria on the skin [3]; 4-7 mM solution in buffer pH 5-pH 7, all patients)
1 | O=S(=O)(O)CCNCl [TauCl, N-chloro taurine, reference compound] | no such selective bactericidal properties | no bactericidal properties |  |  |  |  |  |  | 
2 | O=S(=O)(O)CCNBr [TauBr, N-bromo taurine] | Variable susceptibility of the strains |  | much stronger than TauCl | 99% | < 32 µM | > 125 µM | all the bacterial flora is destroyed | 10^1-10^2 CFU/cm^2 | considerable diminution

From patent US20040214891A1, “Method for inhibiting pathogenic bacteria and fungi growth and microbicidal composition” (priority 2003, published 2004)
